In patent US4496551A (priority 1983, dated 1985) one finds pest or weed control data, which are given here for seven molecules.

One assay concerns Puccinia recondita var. tritici. In words: wheat leaf rust control on wheat seedlings. Conditions: 100 ppm, sprayed day before inoculation. The assay is classed as in vivo. The protocol: (§1) Compounds of this invention were dissolved in acetone in an amount equal to 6% of the final volume and then suspended at a concentration of 100 ppm in purified water containing 250 ppm of the surfactant TREM 014 (polyhydric alcohol esters). This suspension was sprayed to the point of run-off on wheat seedlings. The following day, the plants were inoculated with a spore suspension of Puccinia recondita var. tritici, causal agent of wheat leaf rust, and incubated in a saturated humidity chamber at 20° for 24 hours and then in a growth room for an additional 7 days, when disease ratings were made. Treated plants from successful treatments had few or no rust pustules while the untreated plants had numerous rust pustules on each leaf.
Turning to `C[Si](C)(Cn1ccnc1)c1ccc(S(C)(=O)=O)cc1` [Dimethyl(1H-imidazol-1-ylmethyl)(4-methylsulfonylphenyl)silane], the pest or weed control at 100 ppm was 0%.

As to `CSc1ccc([Si](C)(C)Cn2ccnc2)cc1` [Dimethyl(1H-imidazol-1-ylmethyl)(4-methylthiophenyl)silane], the pest or weed control at 100 ppm turned out to be 0%.

With `CCCCCCCCCCCCCCCCCC[Si](C)(C)Cn1ccnc1` [Dimethyl(1H-imidazol-1-ylmethyl)octadecylsilane], the pest or weed control at 100 ppm was found to be 0%.

In turn, `CC(C)(C)c1ccc([Si](C)(C)Cn2ccnc2)cc1` [[4-(1,1-Dimethylethyl)phenyl](1H-imidazol-1-ylmethyl)dimethylsilane] displayed a pest or weed control at 100 ppm of 0%.

`C[Si](Cn1ccnc1)(c1ccccc1Cl)c1ccccc1Cl` [[bis(2-Chlorophenyl)](1H-imidazol-1-ylmethyl)methylsilane] came in with a pest or weed control at 100 ppm of 0%.

For `C[Si](Cn1ccnc1)(c1ccc(Br)cc1)c1ccc(Br)cc1` [[bis(4-Bromophenyl)](1H-imidazol-1-ylmethyl)methylsilane], the pest or weed control at 100 ppm came to 0%.

The molecule `O[Si](Cn1ccnc1)(c1ccc(Cl)cc1)c1ccc(Cl)cc1` [[bis(4-chlorophenyl)]hydroxy(1H-imidazol-1-ylmethyl)silane] yielded a pest or weed control at 100 ppm of 80%.

The next assay deals with Erysiphe cichoracearum. The assay is described as follows: cucumber powdery mildew control on cucumber seedlings. The format is in vivo. As to conditions: Golovinomyces cichoracearum, 168 h, 7 days. The procedure:
Compounds of the previous examples were again dissolved in acetone in an amount equal to 6% of the final volume and then suspended at a concentration of 100 ppm in purified water containing 250 ppm of the surfactant TREM 014 (polyhydric alcohol esters). This suspension was sprayed to the point of run-off on cucumber seedlings. The following day, the plants were inoculated with a spore suspension of the fungus Erysiphe cichoracearum, causal agent of cucumber powdery mildew, and incubated in a growth room for 7 days. Disease ratings were then made. Treated plants from successful treatments had little or no powdery mildew in contrast to untreated plants which were covered with powdery mildew.
`C[Si](C)(Cn1ccnc1)c1ccc(S(C)(=O)=O)cc1` [Dimethyl(1H-imidazol-1-ylmethyl)(4-methylsulfonylphenyl)silane] registered a pest or weed control at 100 ppm of 0%.

`CSc1ccc([Si](C)(C)Cn2ccnc2)cc1` [Dimethyl(1H-imidazol-1-ylmethyl)(4-methylthiophenyl)silane]: the pest or weed control at 100 ppm worked out at 100%.

The molecule `CCCCCCCCCCCCCCCCCC[Si](C)(C)Cn1ccnc1` [Dimethyl(1H-imidazol-1-ylmethyl)octadecylsilane] returned a pest or weed control at 100 ppm of 0%.

`CC(C)(C)c1ccc([Si](C)(C)Cn2ccnc2)cc1` [[4-(1,1-Dimethylethyl)phenyl](1H-imidazol-1-ylmethyl)dimethylsilane] gave a pest or weed control at 100 ppm of 80%.

On to `C[Si](Cn1ccnc1)(c1ccccc1Cl)c1ccccc1Cl` [[bis(2-Chlorophenyl)](1H-imidazol-1-ylmethyl)methylsilane], for which the pest or weed control at 100 ppm was 100%.

For the molecule `C[Si](Cn1ccnc1)(c1ccc(Br)cc1)c1ccc(Br)cc1` [[bis(4-Bromophenyl)](1H-imidazol-1-ylmethyl)methylsilane], the pest or weed control at 100 ppm is 100%.

The molecule `O[Si](Cn1ccnc1)(c1ccc(Cl)cc1)c1ccc(Cl)cc1` [[bis(4-chlorophenyl)]hydroxy(1H-imidazol-1-ylmethyl)silane] yielded a pest or weed control at 100 ppm of 100%.

Another assay relates to Venturia inaequalis. The assay is described as follows: apple scab control on apple seedlings. The format is in vivo. Conditions: Venturia inaequalis; 100 ppm. The procedure:
as §1, with “apple” for “wheat”, “the fungus Venturia inaequalis,” for “Puccinia recondita var. tritici,”, “apple scab,” for “wheat leaf rust,”, “10-12 days.” for “7 days, when disease ratings were made.”, “apple scab lesions when compared to” for “rust pustules while the”, “which were covered with scab lesions.” for “had numerous rust pustules on each leaf.”
In the case of `C[Si](C)(Cn1ccnc1)c1ccc(S(C)(=O)=O)cc1` [Dimethyl(1H-imidazol-1-ylmethyl)(4-methylsulfonylphenyl)silane], the pest or weed control at 100 ppm turned out to be 80%.

`CSc1ccc([Si](C)(C)Cn2ccnc2)cc1` [Dimethyl(1H-imidazol-1-ylmethyl)(4-methylthiophenyl)silane] returned a pest or weed control at 100 ppm of 0%.

`CCCCCCCCCCCCCCCCCC[Si](C)(C)Cn1ccnc1` [Dimethyl(1H-imidazol-1-ylmethyl)octadecylsilane]: the pest or weed control at 100 ppm was determined as 80%.

Turning to `CC(C)(C)c1ccc([Si](C)(C)Cn2ccnc2)cc1` [[4-(1,1-Dimethylethyl)phenyl](1H-imidazol-1-ylmethyl)dimethylsilane], the pest or weed control at 100 ppm was found to be 50%.

As for `C[Si](Cn1ccnc1)(c1ccccc1Cl)c1ccccc1Cl` [[bis(2-Chlorophenyl)](1H-imidazol-1-ylmethyl)methylsilane], the pest or weed control at 100 ppm was 60%.

For the molecule `C[Si](Cn1ccnc1)(c1ccc(Br)cc1)c1ccc(Br)cc1` [[bis(4-Bromophenyl)](1H-imidazol-1-ylmethyl)methylsilane], the pest or weed control at 100 ppm is 50%.

Consider `O[Si](Cn1ccnc1)(c1ccc(Cl)cc1)c1ccc(Cl)cc1` [[bis(4-chlorophenyl)]hydroxy(1H-imidazol-1-ylmethyl)silane], for which the pest or weed control at 100 ppm came out at 0%.

Another assay relates to Helminthosporium maydis. In words: southern corn leaf blight control on corn seedlings. The format is in vivo. As to conditions: Bipolaris maydis, 168 h. The procedure: Compounds of the previous example were again dissolved in acetone in an amount equal to 6% of the final volume and then suspended at a concentration of 100 ppm in purified water containing 250 ppm of the surfactant TREM 014 (polyhydric alcohol esters). This suspension was sprayed to the point of run-off on corn seedlings. The following day, the plants were inoculated with a spore suspension of Helminthosporium maydis, causal agent of southern corn leaf blight, and incubated in a saturated humidity chamber at 20° for 24 hours and then in a growth room for an additional 7 days, when disease ratings were made. Treated plants from successful treatments had few lesions while the untreated plants had numerous lesions on each leaf.
`C[Si](C)(Cn1ccnc1)c1ccc(S(C)(=O)=O)cc1` [Dimethyl(1H-imidazol-1-ylmethyl)(4-methylsulfonylphenyl)silane] yielded a pest or weed control at 100 ppm of 0%.

`CSc1ccc([Si](C)(C)Cn2ccnc2)cc1` [Dimethyl(1H-imidazol-1-ylmethyl)(4-methylthiophenyl)silane] registered a pest or weed control at 100 ppm of 0%.

For the molecule `CCCCCCCCCCCCCCCCCC[Si](C)(C)Cn1ccnc1` [Dimethyl(1H-imidazol-1-ylmethyl)octadecylsilane], the pest or weed control at 100 ppm was 0%.

In turn, `CC(C)(C)c1ccc([Si](C)(C)Cn2ccnc2)cc1` [[4-(1,1-Dimethylethyl)phenyl](1H-imidazol-1-ylmethyl)dimethylsilane] returned a pest or weed control at 100 ppm of 70%.

`C[Si](Cn1ccnc1)(c1ccccc1Cl)c1ccccc1Cl` [[bis(2-Chlorophenyl)](1H-imidazol-1-ylmethyl)methylsilane] came in with a pest or weed control at 100 ppm of 90%.

Regarding `C[Si](Cn1ccnc1)(c1ccc(Br)cc1)c1ccc(Br)cc1` [[bis(4-Bromophenyl)](1H-imidazol-1-ylmethyl)methylsilane], the pest or weed control at 100 ppm is 0%.

For `O[Si](Cn1ccnc1)(c1ccc(Cl)cc1)c1ccc(Cl)cc1` [[bis(4-chlorophenyl)]hydroxy(1H-imidazol-1-ylmethyl)silane], the pest or weed control at 100 ppm turned out to be 0%.

The subject of the next assay is Cercospora arachidicola. In words: peanut early leafspot control on peanut seedlings. The assay is classed as in vivo. Conditions: Mycosphaerella arachidis, 336 h. The protocol: Compounds of the previous examples were again dissolved in acetone in an amount equal to 6% of the final volume and then suspended at a concentration of 100 ppm in purified water containing 250 ppm of the surfactant TREM 014 (polyhydric alcohol esters). This suspension was sprayed to the point of run-off on peanut seedlings. The following day, the plants were inoculated with a spore suspension of Cercospora arachidicola, causal agent of peanut early leafspot, and incubated in a saturated humidity chamber at 27° for 24 hours and then in a growth room for an additional 14 days, when disease ratings were made. Treated plants from successful treatments had few or no leafspots while the untreated plants had numerous leafspots on each leaf.
Turning to `C[Si](C)(Cn1ccnc1)c1ccc(S(C)(=O)=O)cc1` [Dimethyl(1H-imidazol-1-ylmethyl)(4-methylsulfonylphenyl)silane], the pest or weed control at 100 ppm stood at 0%.

Take `CSc1ccc([Si](C)(C)Cn2ccnc2)cc1` [Dimethyl(1H-imidazol-1-ylmethyl)(4-methylthiophenyl)silane]: the pest or weed control at 100 ppm came to 0%.

In turn, `CCCCCCCCCCCCCCCCCC[Si](C)(C)Cn1ccnc1` [Dimethyl(1H-imidazol-1-ylmethyl)octadecylsilane] came in with a pest or weed control at 100 ppm of 0%.

On to `CC(C)(C)c1ccc([Si](C)(C)Cn2ccnc2)cc1` [[4-(1,1-Dimethylethyl)phenyl](1H-imidazol-1-ylmethyl)dimethylsilane], for which the pest or weed control at 100 ppm stood at 0%.

Regarding `C[Si](Cn1ccnc1)(c1ccccc1Cl)c1ccccc1Cl` [[bis(2-Chlorophenyl)](1H-imidazol-1-ylmethyl)methylsilane], the pest or weed control at 100 ppm stood at 100%.

Consider `C[Si](Cn1ccnc1)(c1ccc(Br)cc1)c1ccc(Br)cc1` [[bis(4-Bromophenyl)](1H-imidazol-1-ylmethyl)methylsilane], for which the pest or weed control at 100 ppm is 50%.

The molecule `O[Si](Cn1ccnc1)(c1ccc(Cl)cc1)c1ccc(Cl)cc1` [[bis(4-chlorophenyl)]hydroxy(1H-imidazol-1-ylmethyl)silane] displayed a pest or weed control at 100 ppm of 50%.

In another assay the test system is Rhizoctonia solani. The assay is described as follows: rice sheath blight control on rice seedlings. The format is in vivo. Conditions: Rhizoctonia solani, 168 h, 7 days. The procedure: Several compounds of the previous examples were again dissolved in acetone in an amount equal to 6% of the final volume and then suspended at a concentration of 100 ppm in purified water containing 250 ppm of the surfactant TREM 014 (polyhydric alcohol esters). This suspension was sprayed to the point of run-off on rice seedlings. The following day, the plants were inoculated with a mixture of bran and the mycelium of Rhizoctonia solani, causal agent of sheath blight of rice, and incubated in a growth room for 7 days. Disease ratings were then made. Treated plants from successful treatments had little sheath blight in contrast to untreated plants which were covered with sheath blight.
`C[Si](C)(Cn1ccnc1)c1ccc(S(C)(=O)=O)cc1` [Dimethyl(1H-imidazol-1-ylmethyl)(4-methylsulfonylphenyl)silane] had a pest or weed control at 100 ppm of 0%.

`CSc1ccc([Si](C)(C)Cn2ccnc2)cc1` [Dimethyl(1H-imidazol-1-ylmethyl)(4-methylthiophenyl)silane] came in with a pest or weed control at 100 ppm of 0%.

For the molecule `CCCCCCCCCCCCCCCCCC[Si](C)(C)Cn1ccnc1` [Dimethyl(1H-imidazol-1-ylmethyl)octadecylsilane], the pest or weed control at 100 ppm was found to be 100%.

Take `CC(C)(C)c1ccc([Si](C)(C)Cn2ccnc2)cc1` [[4-(1,1-Dimethylethyl)phenyl](1H-imidazol-1-ylmethyl)dimethylsilane]: the pest or weed control at 100 ppm came to 0%.

`C[Si](Cn1ccnc1)(c1ccccc1Cl)c1ccccc1Cl` [[bis(2-Chlorophenyl)](1H-imidazol-1-ylmethyl)methylsilane] gave a pest or weed control at 100 ppm of 40%.

`C[Si](Cn1ccnc1)(c1ccc(Br)cc1)c1ccc(Br)cc1` [[bis(4-Bromophenyl)](1H-imidazol-1-ylmethyl)methylsilane] came in with a pest or weed control at 100 ppm of 0%.

In turn, `O[Si](Cn1ccnc1)(c1ccc(Cl)cc1)c1ccc(Cl)cc1` [[bis(4-chlorophenyl)]hydroxy(1H-imidazol-1-ylmethyl)silane] showed a pest or weed control at 100 ppm of 0%.

Another assay relates to Pyricularia oryzae. In words: whole plant or invertebrate. Conditions: 168 h, read-out: % Control of Rice Blast. The assay is classed as in vivo.
On to `C[Si](C)(Cn1ccnc1)c1ccc(S(C)(=O)=O)cc1` [Dimethyl(1H-imidazol-1-ylmethyl)(4-methylsulfonylphenyl)silane], for which the pest or weed control at 100 ppm was determined as 100%.

Turning to `CSc1ccc([Si](C)(C)Cn2ccnc2)cc1` [Dimethyl(1H-imidazol-1-ylmethyl)(4-methylthiophenyl)silane], the pest or weed control at 100 ppm came out at 0%.

With `CCCCCCCCCCCCCCCCCC[Si](C)(C)Cn1ccnc1` [Dimethyl(1H-imidazol-1-ylmethyl)octadecylsilane], the pest or weed control at 100 ppm came to 80%.

In the case of `CC(C)(C)c1ccc([Si](C)(C)Cn2ccnc2)cc1` [[4-(1,1-Dimethylethyl)phenyl](1H-imidazol-1-ylmethyl)dimethylsilane], the pest or weed control at 100 ppm was 80%.

Regarding `C[Si](Cn1ccnc1)(c1ccccc1Cl)c1ccccc1Cl` [[bis(2-Chlorophenyl)](1H-imidazol-1-ylmethyl)methylsilane], the pest or weed control at 100 ppm is 90%.

Take `C[Si](Cn1ccnc1)(c1ccc(Br)cc1)c1ccc(Br)cc1` [[bis(4-Bromophenyl)](1H-imidazol-1-ylmethyl)methylsilane]: the pest or weed control at 100 ppm worked out at 80%.

Regarding `O[Si](Cn1ccnc1)(c1ccc(Cl)cc1)c1ccc(Cl)cc1` [[bis(4-chlorophenyl)]hydroxy(1H-imidazol-1-ylmethyl)silane], the pest or weed control at 100 ppm amounted to 0%.

The next assay has as its system Phytophthora infestans. In words: whole plant or invertebrate. The assay is classed as in vivo. Conditions: Phytophthora infestans, in Solanum lycopersicum, 168 h, read-out: % Control of Tomato Late Blight.
Regarding `C[Si](C)(Cn1ccnc1)c1ccc(S(C)(=O)=O)cc1` [Dimethyl(1H-imidazol-1-ylmethyl)(4-methylsulfonylphenyl)silane], the pest or weed control at 100 ppm stood at 0%.

For the molecule `CSc1ccc([Si](C)(C)Cn2ccnc2)cc1` [Dimethyl(1H-imidazol-1-ylmethyl)(4-methylthiophenyl)silane], the pest or weed control at 100 ppm was found to be 0%.

`CCCCCCCCCCCCCCCCCC[Si](C)(C)Cn1ccnc1` [Dimethyl(1H-imidazol-1-ylmethyl)octadecylsilane]: the pest or weed control at 100 ppm is 0%.

For the molecule `CC(C)(C)c1ccc([Si](C)(C)Cn2ccnc2)cc1` [[4-(1,1-Dimethylethyl)phenyl](1H-imidazol-1-ylmethyl)dimethylsilane], the pest or weed control at 100 ppm was determined as 0%.

Turning to `C[Si](Cn1ccnc1)(c1ccccc1Cl)c1ccccc1Cl` [[bis(2-Chlorophenyl)](1H-imidazol-1-ylmethyl)methylsilane], the pest or weed control at 100 ppm came out at 60%.

In the case of `C[Si](Cn1ccnc1)(c1ccc(Br)cc1)c1ccc(Br)cc1` [[bis(4-Bromophenyl)](1H-imidazol-1-ylmethyl)methylsilane], the pest or weed control at 100 ppm turned out to be 0%.

Consider `O[Si](Cn1ccnc1)(c1ccc(Cl)cc1)c1ccc(Cl)cc1` [[bis(4-chlorophenyl)]hydroxy(1H-imidazol-1-ylmethyl)silane], for which the pest or weed control at 100 ppm was found to be 0%.
